Laboratory results published in US9125930B2, “EGFR aptamer inhibitor for use in therapy and diagnosis” (CONSIGLIO NAZIONALE DELLE RICERCHE, priority 2010, dated 2015).

Legend:
A549 cells = assay: Binding of [32P]-labeled aptamer on A549 cells; design: species or system human
Experimental: Binding experiments were performed with 5′-[^32P]-labeled RNA. For labeling 2′-F-Py RNAs were 5′-end dephosphorylated using bacterial alcaline phosphatase (Invitrogen, Carlsbad, Calif.) before [^32P]-5′-end-labeled using T4 kinase (Invitrogen) and γ-[^32P]-ATP (6×10^3 Ci/mmol, GE Healthcare Bio-Sciences, Uppsala, Sweden) according to the supplier's instructions.
(§1) For binding experiments on cells, 3.5×10^4 cells were plated in 24-well plates in triplicate and were incubated with CL4 42-81 aptamer the scrambled sequence used as a negative control at 100 nM concentration in 200 μl of DMEM serum free for 20 min at RT in the presence of 100 μg/ml polyinosine as a nonspecific competitor (Sigma, St. Louis, Mo.). After five washings with 500 μl DMEM, bound sequences were recovered in 300 μl of SDS 1%, and the amount of radioactivity recovered was counted.

[1] = test system: A549 cells transfected with a specific EGFR shRNA; assay: Binding on A549 cells after EGFR gene silencing; design: species or system human; settings: [32P]-labeled aptamer at 100 nM, relative to scrambled aptamer
Experimental: EGFR gene silencing in NSCLC A549 cells was established by transfection of high performance short hairpin RNA (shRNA) specifically targeting EGFR (from Expression Arrest™ Human shRNA Collection, Open Biosystems, Huntsville, Ala.). Cells (3.5×10^5 cells per 6 cm plate) were grown and overlaid with the transfection mixtures containing the shRNA (6 μg) against EGFR (referred as shRNAEGFR) and Lipofectamine 2000 (Invitrogen, Carlsbad, Calif.) in Opti-MEM I reduced serum medium (Invitrogen). After 5 hours incubation, complete culture medium was added to the cells and incubation was prolonged up to 72 hs. […] For binding assays transfected cells were plated in 24 well plates after 24 hs from transfection.
Binding experiments were performed with 5′-[^32P]-labeled RNA. […]
as §1

A549 tumors = assay: Tumor growth in A549 mouse xenograft; assay type: in vivo; settings: day 16, with respect to CL4 scrambled control, 200 pmols intratumoral three times a week
Experimental: The volume injections are small enough to preclude the compounds being forced inside the cells due to a nonspecific high-pressure injection. Tumors were measured every 3 days with calipers in three dimensions. The following formula was used to calculate tumor volume: VT=(W×L×H)×0.5236 (W, the shortest dimension; L, the longest dimension; H, the intermediate dimension). The growth curves are plotted as the means tumor volume±s.e.m. Statistical analysis of tumor size data was conducted using a one-way ANOVA. A P-value of 0.05 or less was considered to indicate a significant difference. […]
Athymic CD-1 nude mice (nu/nu) were housed in a highly controlled microbiological environment, thus to guarantee specific pathogen free conditions. Mice were injected subcutaneously with 3×10^6 (in 100 μl) in vitro propagated A549. Sixteen non-necrotic tumors of about 0.5 cm in diameter were randomly divided into two groups of eight mice as follows: group 1, CL4 scrambled-treated; group 2, CL4 42-81-treated. Aptamers (200 pmols/injection) were injected intra-tumorally in 100-1 μl volumes three times a week for 16 days. Tumors were measured every 2 days.

STAT 3 = assay: Immunoblot of EGF-induced STAT3 phosphorylation; assay type: cell-based, human; settings: data not shown
Experimental: To assess the effects of aptamers on EGFR activity, A549 cells (1.5×10^5 cells per 3.5-cm plate) were serum-starved over night, pretreated with 200 nM CL4 42-81 aptamer or the scrambled aptamer used as a negative control for 3 h and then stimulated for 30 min with 50 ng/ml EGF (R&D Systems, Minneapolis, Minn.) either alone or in presence of each aptamer. The aptamers were subjected to a short denaturation-renaturation step (85° C. for 5 min, snap-cooled on ice for 2 min, and allowed to warm up to 37° C.) before each treatment. To prepare cell extracts, cells were washed twice in ice-cold PBS, and lysed in buffer A (50 mM Tris-HCl pH 8.0 buffer containing 150 mM NaCl, 1% Nonidet P-40, 2 mg/ml aprotinin, 1 mg/ml pepstatin, 2 mg/ml leupeptin, 1 mM Na3VO4). Protein concentration was determined by the Bradford assay using bovine serum albumin as the standard. The cell lysates were subjected to SDS-PAGE. […]

Substance: CL4 42-81: 2′-fluoropyrimidine nuclease-resistant RNA aptamer of 39 nt: 5′ GCCUUAGUAACGUGCUUUGAUGUCGAUUCGACAGGAGGC 3′ (SEQ ID No. 1) (2'-fluoro at CU, RNA at AG, backbone not given here)
- binding on A549 cells (A549 cells; EGFR-positive, 100 nM): binds
- Kd (A549 cells; binding to A549 target cells): 38 nM
- ability to bind to A549 cells upon decreased EGFR expression [1]: significantly reduced
- inhibition of tumor growth (tumor volume) (A549 tumors): 57%
- EGF-induced phosphorylation of STAT 3 (STAT 3): decreases
